Laboratory results: article PMC10238325, “Optimization of antimicrobial peptides for the application against biocorrosive bacteria” (Applied Microbiology and Biotechnology, 2023)
Converted amounts (≈) assume the structure as drawn. Where a SMILES comes first, the peptide text is derived from it. Where no end group is shown, it is not given here.

Tests used:
[1] = system: Thiomonas intermedia DSM 18155; format: cell-based; settings: DSM 18155, 48 h
Procedure: (§1) The following SRB were used: Desulfovibrio vulgaris DSM 644, Desulfovibrio desulfuricans DSM 642, and Desulfovibrio indonesiensis DSM 15121. The Postgate medium (DSMZ medium 63) with a modification of 0.004 g/L FeSO4 × 7 H2O and 0.3 g/L Tri-sodium citrate (and 2% NaCl for D. indonesiensis) was flushed with nitrogen gas. Each culture was subcultured 1:100. Cultivation occurred for 48 h, 37 °C (30 °C for D. desulfuricans), without shaking. The following SOB was used: Thiomonas intermedia DSM 18155. Therefore, the Thiomonas medium (DSMZ medium 35a) was used, subcultured 1:100, and cultivated for 48 h, 30 °C, 115 rpm. Escherichia coli K12 ATCC 25404 was grown in LB Lennox medium (Carl Roth GmbH & Co.KG Karlsruhe, Germany) for 18 h, 37 °C, 115 rpm and diluted 1:1000 in Mueller-Hinton broth (Carl Roth GmbH & Co.KG Karlsruhe, Germany). Incubation during the assay took place for 24 h, 37 °C, 115 rpm.
(§2) A stock solution of 1 mg/mL in milliQ from the respective peptide and a concentration range of 1000–1.95 μg/mL was prepared by serial 2-fold dilution. 20 μL of each test substance (n=3) per well was added to a 96-well microtiter plate (polystyrene). 100 μL of each bacteria suspension (start OD600: 0.001) was added to the well with test substance, as well as 120 μL as growth control (n=35) and 120 μL medium (n=1) as sterile control to an empty well. To avoid evaporation, all microtiter plates were cultivated in air-tight containers during the incubation period. Microtiter plates for testing on SRB were prepared in the anaerobic chamber (Coy Laboratory Products Inc. Grass Lake, United States of America) and cultivated in air-tight containers including Oxoid anaerobic bag (Thermo Fisher Scientific Inc. Waltham, United States of America) to ensure anaerobic conditions. The microtiter plates were measured before and after incubation at OD600, and the growth inhibition in % was determined with the following equation:1 inhibition%=ΔOD600testsubstance/ΔOD600growthcontrole∙100%
(§3) The minimum inhibitory concentration (MIC) describes the lowest concentration where no bacterial growth could be detected. Besides the MIC100, where a complete reduction of bacterial growth could be detected, other partial inhibitions such as MIC95 or MIC50, where 95% or 50% growth inhibition occurs, can be specified.

[2] = system: Desulfovibrio desulfuricans DSM 642; format: cell-based; settings: DSM 642, 48 h
Procedure: as §1, §2, §3

[3] = system: Desulfovibrio vulgaris DSM 644; format: cell-based; settings: for MIC95 D. vulgaris: 95% growth inhibition, 96-well microdilution, 2-fold series 1000–1.95 μg/mL, n=3, OD600, modified Postgate medium, anaerobic
Procedure: as §1, §2, §3

in vitro = in vitro ADME, Desulfovibrio vulgaris; settings: for remaining at 48 h, 1 mg/mL / remaining at 168 h, 1 mg/mL: cells or culture medium
Procedure: The analysis of the peptides was performed on a RP-HPLC (Agilent 1100, detector: diode array detector G1315A, column: Phenomenex®-Aeris™ 2.6 μm Peptide XB-C18 100 Å,150 × 2.1 mm), and ESI-LC-MS was performed (Knauer, detector: Surveyor MSQ, column: Eurospher II 100-2 C18A, 100 × 2 mm, 2 μm). The gradient was performed with a flow rate of 0.25 mL/min from 99% of mobile phase A (0.1% TFA in milliQ) over 15 min to 95% of mobile phase B (0.1% TFA in acetonitrile), kept at 95% with B for 2 min, and equilibrated at 99% with A for another 3 min. 20 μL (RP-HPLC) and 10 μL (ESI-LC-MS) peptide solution (250 μg/mL in milliQ) was injected.
For the stability tests, a bacterial suspension (7 days old) of D. vulgaris was centrifuged at 5000 rpm for 10 min. 1 mg/mL peptide solution was prepared within the supernatant and incubated at 37 °C for 7 days. The respective aliquots (t=0, 48, 72, 168 h) were mixed 1:10 with quenching solution (milliQ + 0.08% trifluoroacetic acid) and analyzed in triplicates according to the protocol described above for RP-HPLC. In addition, after incubation in the supernatant (168 h), the peptide (P3.2.) was analyzed for activity using the MIC assay.

[4] = system: Desulfovibrio indonesiensis DSM 15121; assay: MIC assay against D. indonesiensis; format: cell-based; settings: 95% growth inhibition; 96-well microdilution, n=3, OD600; modified Postgate medium with 2% NaCl, anaerobic, 48 h, 37 °C, without shaking
Procedure: as §1, §2, §3

SRB = settings: ref Greene et al. [2006]; cited from earlier work
Description: The current strategy to control microbial-influenced corrosion is based on biocides, which lead to fast resistance, requiring higher and higher concentrations to eradicate the bacteria. Alternative treatment strategies are based on additives like D-amino acids or chelates to biocides to reduce the required biocide concentration by a synergistic effect. However, these additives are not inhibitory on their own, and although a reduced biocide concentration is required, the presence of biocide is still necessary (Jia et al. [2017]; Wen et al. [2012]; Wen et al. [2009]). In this paper, a new method ...

Row | Molecule | MIC50 D. desulfuricans [2] | MIC95 D. vulgaris ([3]; 48 h, 37 °C, without shaking) | remaining at 48 h, 1 mg/mL (in vitro) | remaining at 168 h, 1 mg/mL (in vitro) | MIC95 D. indonesiensis [4] | also measured
1 | CC[C@H](C)[C@H](NC(=O)[C@H](CCCNC(=N)N)NC(=O)[C@H](CS)NC(=O)[C@H](CC(C)C)NC(=O)[C@@H](N)CCCNC(=N)N)C(=O)N[C@H](C(=O)N[C@H](C(=O)N[C@H](C(=O)N[C@@H](CCCNC(=N)N)C(=O)N[C@H](C(=O)N[C@@H](CS)C(=O)N[C@@H](CCCNC(=N)N)C(=O)O)C(C)C)[C@@H](C)CC)C(C)C)C(C)C [Bactenecin] (H-RLCRIVVIRVCR-OH; N-terminus and C-terminus assumed) | 250 µg/mL (≈ 168 µM) | 62.5 µg/mL (≈ 42.1 µM) | 41% | 17% | 31.25 µg/mL (≈ 21 µM) | MIC50 T. intermedia [1]: 62.5 µg/mL (≈ 42.1 µM); stability in supernatant (in words) (in vitro): significant stability loss after only 48 h
2 | CC(C)C[C@H](NC(=O)[C@H](CC(C)C)NC(=O)[C@H](CCCCN)NC(=O)[C@H](CCCCN)NC(=O)[C@H](CC(C)C)NC(=O)[C@H](Cc1c[nH]c2ccccc12)NC(=O)[C@H](CCCCN)NC(=O)[C@H](Cc1c[nH]c2ccccc12)NC(=O)[C@H](CC(C)C)NC(=O)[C@H](CCCCN)NC(=O)[C@H](CCCCN)NC(=O)CCCCCN)C(N)=O [Peptide P3.2.] (HELM PEPTIDE1{[NCCCCCC(=O)[*:2]].K.K.L.W.K.W.L.K.K.L.L.[am]}$$$$V2.0) | 250 µg/mL (≈ 157 µM) | 15.63 µg/mL (≈ 9.79 µM) | 99% | 85% | 125 µg/mL (≈ 78.3 µM) | MIC50 D. vulgaris after incubation in supernatant ([3]; DSM 644, 168 h): 31.25 µg/mL (≈ 19.6 µM); MIC95 D. vulgaris after incubation in supernatant ([3]; peptide (1 mg/mL) first incubated 168 h in D. vulgaris supernatant, then dilution series, 48 h, 37 °C, without shaking): 62.5 µg/mL (≈ 39.2 µM)
3 | CC(C)C[C@H](NC(=O)[C@H](CC(C)C)NC(=O)[C@H](CCCCN)NC(=O)[C@H](CCCCN)NC(=O)[C@H](CC(C)C)NC(=O)[C@H](Cc1c[nH]c2ccccc12)NC(=O)[C@H](CCCCN)NC(=O)[C@H](Cc1c[nH]c2ccccc12)NC(=O)[C@H](CC(C)C)NC(=O)[C@H](CCCCN)NC(=O)[C@H](CCCCN)NC(=O)CCCCCCCN)C(N)=O [Peptide P3.3.] (HELM PEPTIDE1{[NCCCCCCCC(=O)[*:2]].K.K.L.W.K.W.L.K.K.L.L.[am]}$$$$V2.0) | 250 µg/mL (≈ 154 µM) | – | – | – | – | –
4 | CCCCCCCCCC(=O)N[C@@H](CCCCN)C(=O)N[C@@H](CCCCN)C(=O)N[C@@H](CC(C)C)C(=O)N[C@@H](Cc1c[nH]c2ccccc12)C(=O)N[C@@H](CCCCN)C(=O)N[C@@H](Cc1c[nH]c2ccccc12)C(=O)N[C@@H](CC(C)C)C(=O)N[C@@H](CCCCN)C(=O)N[C@@H](CCCCN)C(=O)N[C@@H](CC(C)C)C(=O)N[C@@H](CC(C)C)C(N)=O [Peptide P3.4.] (HELM PEPTIDE1{[CCCCCCCCCC(=O)[*:2]].K.K.L.W.K.W.L.K.K.L.L.[am]}$$$$V2.0) | 125 µg/mL (≈ 76.3 µM) | 31.25 µg/mL (≈ 19.1 µM) | – | – | 31.25 µg/mL (≈ 19.1 µM) | –
5 | CCCCCCCCCCCC(=O)N[C@@H](CCCCN)C(=O)N[C@@H](CCCCN)C(=O)N[C@@H](CC(C)C)C(=O)N[C@@H](Cc1c[nH]c2ccccc12)C(=O)N[C@@H](CCCCN)C(=O)N[C@@H](Cc1c[nH]c2ccccc12)C(=O)N[C@@H](CC(C)C)C(=O)N[C@@H](CCCCN)C(=O)N[C@@H](CCCCN)C(=O)N[C@@H](CC(C)C)C(=O)N[C@@H](CC(C)C)C(N)=O [Peptide P3.5.] (HELM PEPTIDE1{[CCCCCCCCCCCC(=O)[*:2]].K.K.L.W.K.W.L.K.K.L.L.[am]}$$$$V2.0) | 62.5 µg/mL (≈ 37.5 µM) | 62.5 µg/mL (≈ 37.5 µM) | – | – | 31.25 µg/mL (≈ 18.8 µM) | –
6 | CCCCCCCCCCCCCC(=O)N[C@@H](CCCCN)C(=O)N[C@@H](CCCCN)C(=O)N[C@@H](CC(C)C)C(=O)N[C@@H](Cc1c[nH]c2ccccc12)C(=O)N[C@@H](CCCCN)C(=O)N[C@@H](Cc1c[nH]c2ccccc12)C(=O)N[C@@H](CC(C)C)C(=O)N[C@@H](CCCCN)C(=O)N[C@@H](CCCCN)C(=O)N[C@@H](CC(C)C)C(=O)N[C@@H](CC(C)C)C(N)=O [Peptide P3.6.] (HELM PEPTIDE1{[CCCCCCCCCCCCCC(=O)[*:2]].K.K.L.W.K.W.L.K.K.L.L.[am]}$$$$V2.0) | 125 µg/mL (≈ 73.8 µM) | 125 µg/mL (≈ 73.8 µM) | – | – | 62.5 µg/mL (≈ 36.9 µM) | –
7 | O=S(=O)([O-])[O-].OC[P+](CO)(CO)CO.OC[P+](CO)(CO)CO [THPS, tetrakis(hydroxymethyl)phosphonium sulfate] | – | – | – | – | – | concentration required to inhibit SRB growth (SRB): 40 µg/mL
8 | Ac-KKLWKWLKKLL-NH2 [Peptide P3.1.] | 500 µg/mL | 31.25 µg/mL | – | – | 125 µg/mL | –
9 | FFGKVLKLIRKIF [DASamP1] | 500 µg/mL | – | 99% | – | – | MIC50 T. intermedia [1]: 125 µg/mL
10 | FKKFWKWFRRF [Peptide S6L3-33] | 500 µg/mL | – | 93% | 85% | – | MIC50 T. intermedia [1]: 62.5 µg/mL
11 | KKLLKWLKKLL [Peptide L5K5W] | >1000 µg/mL | – | 91% | 80% | – | MIC50 T. intermedia [1]: 500 µg/mL
12 | KKLWKWLKKLL [Peptide L5K5W-W4I6] | >1000 µg/mL | – | 94% | 86% | – | –
13 | KKLWKWLKKLL-NH2 [Peptide P2.1.] | 250 µg/mL | – | – | – | – | –
14 | RRLWRWLRRLL [Peptide P1.1.] | 1000 µg/mL | – | – | – | – | –
